Assay results published in BindingDB's records for doi:10.1021/jm00038a005 (Bristol-Myers Squibb, 1994).

Target: T1, Dimer of Gag-Pol polyprotein [489-587] (Human immunodeficiency virus 1, UniProt P12497)
T1 construct: 489-587
Test: Protease Inhibition Assay
Conditions: pH 5.5; 37 °C
Protocol: Sensitivity of HIV-1 protease activity to protease inhibitors was determined by a peptide substrate cleavage assay. Protease products were analyzed on a reverse-phase high-pressure liquid chromatograph.

CC(C)(C)OC(=O)N[C@@H](CC1CCCCC1)[C@H](O)CNC[C@@H](O)[C@H](CC1CCCCC1)NC(=O)OC(C)(C)C [(R,S)-[Iminobis[1-(cyclohexylmethyl)-2-hydroxy-3,1-propanediyl]]bis[carbamic acid], Bis(1,1-dimethylethylester)]
IC50: 800 nM

CC(C)(C)OC(=O)N[C@@H](Cc1ccccc1)[C@H](O)CNC[C@@H](O)[C@H](Cc1ccc(O)cc1)NC(=O)OC(C)(C)C [BMS-186318 analog 4]
IC50: 100 nM

CC(C)(C)OC(=O)N[C@@H](Cc1ccccc1)[C@H](O)CNC[C@@H](O)[C@H](Cc1ccccc1)NC(=O)OC(C)(C)C [tert-butyl N-[(2S,3R)-4-{[(2R,3S)-3-{[(tert-butoxy)carbonyl]amino}-2-hydroxy-4-phenylbutyl]amino}-3-hydroxy-1-phenylbutan-2-yl]carbamate]
Ki: 100 nM

CC(C)(C)OC(=O)N[C@@H](CCc1ccccc1)[C@H](O)CNC[C@@H](O)[C@H](Cc1ccccc1)NC(=O)OC(C)(C)C [tert-butyl N-[(2S,3R)-4-{[(2R,3S)-3-{[(tert-butoxy)carbonyl]amino}-2-hydroxy-5-phenylpentyl]amino}-3-hydroxy-1-phenylbutan-2-yl]carbamate]
IC50: 500 nM
